For data set [1], the target named is T1, Serine protease 1 (Bos taurus, UniProt P00760).
T1 sequence (P00760 whole entry): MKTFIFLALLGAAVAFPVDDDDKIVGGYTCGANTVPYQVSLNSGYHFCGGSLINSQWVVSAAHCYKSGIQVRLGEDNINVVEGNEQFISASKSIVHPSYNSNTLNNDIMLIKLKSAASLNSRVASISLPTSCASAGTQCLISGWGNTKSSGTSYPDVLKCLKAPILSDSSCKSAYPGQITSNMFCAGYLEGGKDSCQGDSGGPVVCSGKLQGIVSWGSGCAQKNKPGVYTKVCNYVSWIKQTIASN
Briefly: Inhibitory concentration against bovine trypsin; NT=Not determined.

Data set [2] addresses T1, Serine protease 1. Briefly: Inhibitory concentration against bovine trypsin; Not determined.
The nature of data set [3]: Oral bioavailability was determined in conscious rat after 10 mg/kg dosage through gavage. The format is ADME, organism-based. Particulars: in vivo.
In data set [4] the target is T1, Serine protease 1. In words: Binding affinity against bovine trypsin.
For another data set, the system named is Canis familiaris. In words: In vivo effective intravenous dose for that reduces thrombus weight accumulation on a silk fiber by 50% was determined in Dog arteriovenous shunt model. The format is functional. Particulars: Canis lupus familiaris.
Data set [5] can be described thus: Oral half life was determined in conscious rat after 10 mg/kg dosage through gavage. The format is ADME, organism-based. Particulars: in vivo. Details: dose 10 mg/kg.
For data set [6], the system named is Cavia porcellus. In words: Percent change in blood pressure in guinea pig at 10 mg/kg dose.
A further data set concerns Oryctolagus cuniculus. Briefly: In vivo effective intravenous dose for that was determined in Rabbit deep vein thrombosis model.
The species named for data set [7] is Homo sapiens. In words: Inhibitory concentration of the compound was determined against gel filtered platelet aggregation induced by alpha thrombin. The format is functional.
A short description of data set [8]: Half life was determined in rat after an intravenous dose of 1 mg/kg. Details: dose 1 mg/kg, route intravenous. The format is ADME, organism-based. Particulars: in vivo.
For data set [9], the species on record is Cavia porcellus. Briefly: animal or person. Particulars: Blood, iv.
Description: In vivo effective intravenous dose for eliciting a 25% decrease in blood pressure in anesthetized Guinea pig
Data set [10] addresses T2, Prothrombin (Homo sapiens, UniProt P00734). In words: Binding affinity against human alpha thrombin; SB = slow-binding kinetics.
The species named for data set [11] is Homo sapiens. Briefly: Inhibitory concentration against gel filtered platelet aggregation induced by alpha thrombin. The format is functional.
For data set [12], the target named is T2, Prothrombin. In words: Inhibition constant against human alpha thrombin.
For data set [13], the system named is Cavia porcellus. In words: Percent change in blood pressure in guinea pig at 20 mg/kg dose.
Data set [14] addresses T2, Prothrombin. Briefly: Inhibitory concentration against human alpha thrombin.
For data set [15], the target named is T2, Prothrombin. Briefly: Binding affinity determined against human alpha thrombin.
The subject of data set [16] is Cavia porcellus. Briefly: Cardiovascular safety ratio ratiod (ED-25:ED50) estimation, which is based on a comparison of the hypotensive response in anesthetized guinea pigs to the anticoagulant / antithrombotic response in dogs. In kind it is functional.
The test system of data set [17] is Cavia porcellus. Briefly: Cardiovascular safety ratio ratiod (ED-25:ED50) estimation, which is based on a comparison of the hypotensive response in anesthetized guinea pigs to the anticoagulant / antithrombotic response in rabbit. In kind it is functional.

In general, pIC50 refers to −log10 of the IC50, conventionally taken in molar units. Read a high pIC50 as a small IC50. Broadly, the bioavailability is the share of a dose that reaches the circulation, judged against a reference dose that is usually intravenous. Lower therefore signals poor availability. Broadly, the pKi is −log10 of the Ki, conventionally taken in molar units. Low values mean a large Ki, high ones a small Ki. For orientation: ED50 means the dose that gives a 50% effect, or the effect in half of the subjects. The low end stands for greater potency, the high end for weaker potency. A word on the half-life: it is how long it takes for the measured level to halve. A lower half-life goes with fast loss.

Molecules are shown by their SMILES. pIC50, pKi: −log10 of the molar value.

Turning to `CN[C@H](Cc1ccccc1)C(=O)N1CCC[C@H]1C(=O)N[C@@H](CCCN=C(N)N)Cc1nc2ccccc2s1`, the pIC50 on Serine protease 1 [1] is 4.49.
`CN[C@H](Cc1ccccc1)C(=O)N1CCC[C@H]1C(=O)N[C@H](CCCN=C(N)N)Cc1nc2ccccc2s1` gave a pIC50 on Serine protease 1 [2] of 4.52.
In [3], `CN[C@H](Cc1ccccc1)C(=O)N1CCC[C@H]1C(=O)NC(CCCN=C(N)N)C(=O)c1nc2ccc(C(=O)O)cc2s1` (stereo not given in full) showed a bioavailability of 3%. The same compound showed a pKi on Serine protease 1 [4] of 8.57. Moreover, the ED50 came to 0.14 mg/kg in the data set with Canis familiaris and 0.43 mg/kg with Oryctolagus cuniculus. For the same compound, the half-life in [5] was 60 min; in [8], 25 min. Further, the “Delta BP” value with Cavia porcellus [6] was -32%. The compound further had a pIC50 in the data set filed under Homo sapiens [7] of 7.39. Further, the ED25 in the data set filed under Cavia porcellus [9] came out at 13 mg/kg.
On to `NC(N)=NCCCC(NC(=O)[C@@H]1CCCN1C(=O)[C@H](N)Cc1ccccc1)C(=O)c1nc2ccccc2s1` (stereo not given in full), for which the pKi on Serine protease 1 [4] was 9.52. Further, the Ki result on Prothrombin [10] is listed as “Slow Binding”.
With `N=C(N)NCCC[C@H](NC(=O)[C@@H]1CCCN1C(=O)[C@H](CO)NS(=O)(=O)c1cccc2ccccc12)C(=O)c1nc2ccccc2s1`, the values for the pIC50 in the data set filed under Homo sapiens [11] and against Prothrombin [14] were 7.47 and 6.96, respectively. Moreover, the results for the pKi at Serine protease 1 [4], at Prothrombin [12] and at Prothrombin [15] were 8.54, 8.00 and 9.11, respectively. In the data set on Cavia porcellus [13], the “Delta BP” value was -30%.
Regarding `CN[C@H](Cc1ccccc1)C(=O)N1CCC[C@H]1C(=O)N[C@H](C=O)CCCNC(=N)N` (stereo in doubt; 1b), the Ratio was 43 in the data set on Cavia porcellus [16] and 136 in the data set with Cavia porcellus [17]. In addition, the pIC50 in the data set filed under Homo sapiens [11] was 7.08; against Prothrombin [14] it was 7.07. Further, the pKi is 8.04 on Serine protease 1 [4], 7.74 at Prothrombin [12] and 7.74 on Prothrombin [15]. Moreover, the ED50 in the data set on Canis familiaris came to 0.66 mg/kg; with Oryctolagus cuniculus, 0.21 mg/kg. In the data set with Cavia porcellus [6], the “Delta BP” value is -21%. In the data set listed under Cavia porcellus [9], this compound gave an ED25 of 28.6 mg/kg.
